Ten compounds from patent US5750696A, “Dioxacycloalkane compound having renin-inhibitory activity” (Japan Tobacco Inc., priority 1992, dated 1998) can be followed below.

The subject of assay [1] is non-anesthetized marmosets. Put plainly: Hypotensive action on non-anesthetized marmosets under salt intake control. The format is in vivo. To be noted: 10 mg/kg, po, low salt diet, tail-cuff method, relative to value before administration. An excerpt: (§1) In the following, the test results of the inhibitory action of the dioxacycloalkane compound of the above-mentioned formula [1] of the present invention, on the renin activity in human plasma and the hypotensive action on nonanesthetized marmosets under salt intake control are shown.
Hypotensive action on non-anesthetized marmosets under salt intake control
Non-anesthetized marmosets (weighing 310-370 g) raised on a low salt diet (containing 0.02% salt, 1/10 of the normal diet) for a week were orally administered with the compound (10 mg/kg) of Example 1 dissolved in 0.1 M citric acid, at the ratio of 2 ml/kg. The blood pressure was measured with the lapse of time before and after the administration by the tail-cuff method, and the hypotensive action was calculated in percentage relative to the value measured before the administration.

Assay [2] deals with T1, renin activity in human plasma (Homo sapiens, UniProt P00797).
T1 construct: Human plasma (200 μl); from tissue; host or cells: human plasma
T1 sequence (P00797 67-406): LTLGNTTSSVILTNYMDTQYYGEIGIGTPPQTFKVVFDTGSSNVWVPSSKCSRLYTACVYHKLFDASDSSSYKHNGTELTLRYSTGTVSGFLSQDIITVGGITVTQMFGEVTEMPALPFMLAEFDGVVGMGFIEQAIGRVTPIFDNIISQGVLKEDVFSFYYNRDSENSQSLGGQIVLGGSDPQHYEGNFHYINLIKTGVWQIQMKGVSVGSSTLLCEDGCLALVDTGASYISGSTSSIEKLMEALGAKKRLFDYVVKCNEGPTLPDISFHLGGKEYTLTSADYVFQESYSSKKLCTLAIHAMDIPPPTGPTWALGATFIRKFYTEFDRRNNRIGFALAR
Put plainly: Inhibitory action on renin activity in human plasma. The format is biochemical. To be noted: 37° C., 1 hour, angiotensin I by radio immunoassay. The protocol:
as §1
Inhibitory action on renin activity in human plasma
Human plasma (200 μl), a pH adjusting solution (20 μl), PMSF (10 μl), and a solution (10 μl) of the dioxacycloalkane compound of the present invention in dimethyl sulfoxide or dimethyl sulfoxide (10 μl ) as a control were placed in plastic tubes for RIA. Two sets of these were prepared and one set of them was incubated at 37° C. for 1 hour and the other was incubated at 4° C. for 1 hour.
After incubation, the amount of angiotensin I was quantitatively assayed by the radio immunoassay method. The renin activity in plasma was calculated by subtracting the amount of angiotensin I in the reaction mixture incubated at 4° C. from that in the reaction mixture incubated at 37° C. Percent inhibitory activity was calculated from the following formula [formula] The molar concentration necessary for 50% inhibition of activity (IC5 0) was determined from the inhibitory activity value obtained by the above calculating formula. [RENIN RIABEADS KIT (Dinabot Ltd.) was used for the measurement.]

The term IC50 denotes the concentration at which inhibition is half-maximal. Read a high IC50 as weaker potency in that assay. For `CN(C(=O)[C@H](Cc1ccccc1)NC(=O)N1CCCCC1)[C@@H](Cc1c[nH]cn1)C(=O)N[C@@H](CC1CCCCC1)[C@@H](O)C[C@@H]1OCOC1(C)C` [Example 1, (4S)-4-[(2S,3S)-4-cyclohexyl-2-hydroxy-3-[[Nα-methyl-N α-(N-piperidinocarbonyl-L-phenylalanyl)-L-histidyl]amino]butyl]-5,5-dimethyl-1,3-dioxolane], the “Hypotensive action (%) 0.5 hr later” value in assay [1] (0.5 hr later) is listed as 10%. Moreover, in assay [1] (1 hr later), the “Hypotensive action (%) 1 hr later” value is 12%. Besides, the “Hypotensive action (%) 3 hrs later” value in assay [1] (3 hrs later) is recorded as 10%. Further, the “Hypotensive action (%) 5 hrs later” value in assay [1] (5 hrs later) is 10%. Also, the “Hypotensive action (%) 7 hrs later” value in assay [1] (7 hrs later) is 3%. This compound also came in with an IC50 in assay [2] of 0.9 nM.

In the case of `CN(C(=O)[C@H](Cc1ccccc1)NC(=O)N1CCCCC1)[C@@H](Cc1c[nH]cn1)C(=O)N[C@@H](CC1CCCCC1)[C@@H](O)C[C@H]1OCOC1(C)C` [Example 2, (4R)-4-[(2S,3S)-4-cyclohexyl-2-hydroxy-3-[[Nα-methyl-N α-(N-piperidinocarbonyl-L-phenylalanyl)-L-histidyl]amino]butyl]-5,5-dimethyl-1,3-dioxolane], the concentration for half-maximal inhibition (IC50) in assay [2] worked out at 21 nM.

In the case of `CC1(C)OCO[C@H]1C[C@H](O)[C@H](CC1CCCCC1)NC(=O)[C@H](Cc1c[nH]cn1)NC(=O)[C@H](Cc1ccccc1)OC(=O)N1CCCCC1` [Example 3, (4S)-4-[(2S,3S)-4-cyclohexyl-2-hydroxy-3-[[Nα-[(2S)-3-phenyl-2-piperidinocarbonyloxypropionyl]-L-histidyl]amino]butyl]-5,5-dimethyl-1,3-dioxolane], the IC50 in assay [2] was 7 nM.

`CC1(C)OCO[C@H]1C[C@H](O)[C@H](CC1CCCCC1)NC(=O)[C@H](Cc1c[nH]cn1)NC(=O)[C@H](Cc1ccccc1)NC(=O)N1CCCCC1` [Example 4, (4S)-4-[(2S,3S)-4-cyclohexyl-2-hydroxy-3-[[N α-(N-piperidino-carbonyl-L-phenylalanyl)-L-histidyl]amino]butyl]-5,5-dimethyl-1,3-dioxolane] had an IC50 in assay [2] of 1.8 nM.

The compound `CSC[C@H](NC(=O)[C@H](Cc1ccccc1)OC(=O)N1CCN(C)CC1)C(=O)N[C@@H](CC1CCCCC1)[C@@H](O)C[C@@H]1OCOC1(C)C` [Example 5, (4S)-4-[(2S,3S)-4-cyclohexyl-2-hydroxy-3-[[S-methyl-N-[(2S)-3-phenyl-2-(4-methylpiperazinyl)carbonyloxypropionyl]-L-cysteinyl]amino]butyl]-5,5-dimethyl-1,3-dioxolane] came in with an IC50 in assay [2] of 14 nM.

Compound `CN(C(=O)[C@H](Cc1ccccc1)NS(=O)(=O)N1CCCCC1)[C@@H](Cc1c[nH]cn1)C(=O)N[C@@H](CC1CCCCC1)[C@@H](O)C[C@@H]1OCOC1(C)C` [Example 6, (4S)-4-[(2S,3S)-4-cyclohexyl-2-hydroxy-3-[[Nα-methyl-N α-(N-piperidinosulfonyl-L-phenylalanyl)-L-histidyl]amino]butyl]-5,5-dimethyl-1,3-dioxolane] returned a half-maximal inhibitory concentration (IC50) in assay [2] of 11 nM. The IC50 values of the last two compounds are within 1.5-fold of each other.

On to `CC1CCN(C(=O)N[C@@H](Cc2ccccc2)C(=O)N(C)[C@@H](Cc2c[nH]cn2)C(=O)N[C@@H](CC2CCCCC2)[C@@H](O)C[C@@H]2OCOC2(C)C)CC1` [Example 9, (4S)-4-[(2S,3S)-4-cyclohexyl-2-hydroxy-3-[[Nα-methyl-N α-[N-(4-methylpiperidino)carbonyl-L-phenylalanyl]-L-histidyl]-amino]butyl]-5,5-dimethyl-1,3-dioxolane], for which the IC50 in assay [2] came out at 3 nM.

With `CCN(CC)C(=O)N[C@@H](Cc1ccccc1)C(=O)N(C)[C@@H](Cc1c[nH]cn1)C(=O)N[C@@H](CC1CCCCC1)[C@@H](O)C[C@@H]1OCOC1(C)C` [Example 10, (4S)-4-[(2S,3S)-4-cyclohexyl-2-hydroxy-3-[[Nα-methyl-N α-[N-(diethylamino)carbonyl-L-phenylalanyl]-L-histidyl]amino]butyl]-5,5-dimethyl-1,3-dioxolane], in assay [2], the IC50 amounted to 7.8 nM.

Regarding `CN(C(=O)[C@H](Cc1ccccc1)NC(=O)N1CCCCC1)[C@@H](Cc1c[nH]cn1)C(=O)N[C@@H](CC1CCCCC1)[C@@H](O)C[C@@H]1OC(C)(C)OC1(C)C` [Example 11, (4S)-4-[(2S,3S)-4-cyclohexyl-2-hydroxy-3-[[Nα-methyl-N α-(N-piperidinocarbonyl-L-phenylalanyl)-L-histidyl]amino]butyl]-2,2,5,5-tetramethyl-1,3-dioxolane], half-maximal inhibition in assay [2] (IC50) was put at 13 nM.

The compound `CN(C(=O)[C@H](Cc1ccccc1)NC(=O)N1CCCCC1)[C@@H](Cc1c[nH]cn1)C(=O)N[C@@H](CC1CCCCC1)[C@@H](O)C[C@@H]1OC(c2ccccc2)OC1(C)C` (stereo partly drawn) [Example 12, (4S)-4-[(2S,3S)-4-cyclohexyl-2-hydroxy-3-[[Nα-methyl-N α-(N-piperidinocarbonyl-L-phenylalanyl)-L-histidyl]amino]butyl]-5,5-dimethyl-2-phenyl-1,3-dioxolane] had an IC50 in assay [2] of 4 nM.
